{"source": "patent US20210349099A1", "about": "“CANCER BIOMARKERS AND METHODS OF USE THEREOF” (X4 Pharmaceuticals, Inc., priority 2017, published 2021)", "key": {"[1]": {"system": "pancreatic adenocarcinoma", "settings": "murine pancreatic adenocarcinoma; cited from earlier work"}, "[2]": {"system": "melanoma, renal cell carcinoma, and ovarian cancer", "settings": "murine models; cited from earlier work"}, "[3]": {"system": "solid tumors, e.g. advanced or metastatic melanoma", "assay": "Biomarker findings in tumors", "format": "in vivo", "description": "Granzyme B is associated with cell death/apoptosis mediated by cytotoxic T lymphocytes (CTLs), natural killer (NK) cells, and cytotoxic T cells. Accordingly, in some embodiments, the biomarker is an observed increase in granzyme B expression in a tumor relative to a control. In some embodiments, the cancer is a solid tumor such as advanced or metastatic melanoma. […] Accordingly, in some embodiments, the biomarker is an observed increase in CD8^+ T cells and/or CD4^+ T cells in a tumor relative to a control. In other embodiments, the biomarker is an increase in the ratio of CD8^+ T cells to Treg cells. In some embodiments, the increase is observed by immunohistochemistry or expression levels of one or both of CD8A and CD8B. In some embodiments, an increase in CD8^+ T cells and/or CD4^+ T cells or CD8^+ T cells/Treg ratio in a tumor sample from a patient who has undergone treatment with […]-001 or X4-136 correlates with an increased likelihood that the patient will benefit from continued treatment with […]-001 alone or in combination with an immunotherapeutic agent, e.g., a checkpoint inhibitor such as a PD-1 antagonist. In some embodiments, the PD-1 antagonist is selected from nivolumab and pembrolizumab, or a biosimilar or variant of such PD-1 antagonists. In some embodiments, the checkpoint inhibitor is nivolumab. In some embodiments, the checkpoint inhibitor is a nivolumab biosimilar or variant. In some embodiments, the checkpoint inhibitor is pembrolizumab. In some embodiments, the checkpoint inhibitor is a pembrolizumab biosimilar or variant. In some embodiments, the tumor is a solid tumor such as advanced or metastatic melanoma. […] In some embodiments, the biomarker is IDO1. In some embodiments, the biomarker is CXCL10. In some embodiments, the biomarker is CXCL9. In some embodiments, the biomarker is HLA-DRA. In some embodiments, the biomarker is STAT1. In some embodiments, the biomarker is IFN-γ. In some embodiments, the biomarker is two or more of IDOL, CXCL10, CXCL9, HLA-DRA, STAT1 and IFN-γ. In some embodiments, the biomarker is three or more of IDO1, CXCL10, CXCL9, HLA-DRA, STAT1 and IFN-γ. In some embodiments, the biomarker is four or more of IDOL, CXCL10, CXCL9, HLA-DRA, STAT1 and IFN-γ. In some embodiments, the biomarker is five or more of IDOL, CXCL10, CXCL9, HLA-DRA, STAT1 and IFN-γ. In some embodiments, the biomarker is all of IDOL, CXCL10, CXCL9, HLA-DRA, STAT1 and IFN-γ. In some embodiments, the biomarker is an increase of all of IDO1, CXCL10, CXCL9, HLA-DRA, STAT1 and IFN-γ. In some embodiments, an increase in one, two, three, four, five, or all of IDOL, CXCL10, CXCL9, HLA-DRA, STAT1 and IFN-γ in a tumor sample from a patient who has undergone treatment with […]-001 correlates with an increased likelihood that the patient will benefit from continued treatment with […]-001 alone or in combination with an immunotherapeutic agent, e.g., a checkpoint inhibitor such as a PD-1 antagonist. In some embodiments, the PD-1 antagonist is selected from nivolumab and pembrolizumab, or a biosimilar or variant of such PD-1 antagonists. In some embodiments, the checkpoint inhibitor is nivolumab. In some embodiments, the checkpoint inhibitor is a nivolumab biosimilar or variant. In some embodiments, the checkpoint inhibitor is pembrolizumab. In some embodiments, the checkpoint inhibitor is a pembrolizumab biosimilar or variant. In some embodiments, the tumor is a solid tumor such as advanced or metastatic melanoma. In some embodiments, the biomarker or the use thereof is one of those described in Ayers et al., Journal of Clinical Investigation 2017, 127(8), 2930-2940 [29] (“Ayers et al. (2017)”) or WO 2016/094377, each of which is hereby incorporated by reference. […] Accordingly, in some embodiments, the biomarker is maintenance or decrease of Treg levels in a tumor relative to a control. In some embodiments, the biomarker is the level of FoxP3 expression, which serves as a means to determine the Treg level. […]"}, "[4]": {"system": "B16-OVA tumors", "assay": "B16-OVA syngeneic melanoma tumor growth", "format": "in vivo, C57BL/6 mice", "settings": "sixteen (16) days of treatment, regimens of Table 9", "protocol": "B16-OVA cells (˜1×10^5) were implanted in C57BL/6 mice. Animals were evaluated periodically and when tumors attained a size of approximately 3 mm×3 mm, animals were then grouped randomly and treated for sixteen (16) days.\nAt the end of treatment animals were sacrificed and dissected to evaluate and sample tumor masts."}, "[5]": {"system": "unresectable or metastatic melanoma", "settings": "Phase 3 trial, P<0.001; cited from earlier work"}, "[6]": {"settings": "solid tumors, e.g. advanced or metastatic melanoma"}}, "data": [{"compound": "c1cc(CN2CCCNCCNCCCNCC2)ccc1CN1CCCNCCNCCCNCC1", "note": "[AMD3100, reference compound]", "values": [{"measurement": "T-cell accumulation among the cancer cells", "setting": "[1]", "result": "induced rapid T-cell accumulation"}, {"measurement": "anti-tumor activity", "setting": "[2]", "result": "significant anti-tumor activity, including decreased metastasis and increased overall survival"}]}, {"compound": "Cc1cccnc1[C@H]1CCC[C@@H](c2ncccc2C)N1CCCCN", "note": "[X4-136]", "values": [{"measurement": "CTL signature gene expression in tumor samples or the tumor microenvironment", "setting": "[3]; in vivo", "result": "increase"}, {"measurement": "IFN-γ gene signature (panel of IFN-γ related genes)", "setting": "[3]; in vivo", "result": "increase"}, {"measurement": "PD-L1 expression in tumor samples and the tumor microenvironment", "setting": "[3]; in vivo", "result": "increase"}, {"measurement": "granzyme B (GZMB) expression in cancers", "setting": "[3]; [6]", "result": "increases"}, {"measurement": "levels of Treg cells", "setting": "[3]; [6]", "result": "without significantly increasing"}, {"measurement": "levels of macrophages in the tumor", "setting": "[3]; [6]", "result": "without significantly modulating"}, {"measurement": "observed numbers of CD8+ T cells and/or CD4+ T cells in cancers", "setting": "[3]; [6]", "result": "increases"}, {"measurement": "levels of the VISTA panel of biomarkers", "setting": "[3]; tumor samples and the tumor microenvironment", "result": "modulate"}]}, {"compound": "NCCCCN(Cc1nc2ccccc2[nH]1)[C@H]1CCCc2cccnc21", "note": "[X4P]", "values": [{"measurement": "tumor volumes", "setting": "[4]", "result": "substantially reduced tumor volumes"}]}, {"compound": "Pembrolizumab: humanized IgG4 kappa monoclonal antibody that blocks the interaction between PD-1 and its ligands", "values": [{"measurement": "objective response rate", "setting": "[5]", "result": 33, "unit": "%"}]}, {"compound": "ipilimumab: anti-CTLA-4 antibody", "values": [{"measurement": "objective response rate", "setting": "[5]", "result": 12, "unit": "%"}]}]}
